The subject of data set [1] is AR 1.0 cells. Briefly: Drug accumulation assay: daunorubicin accumulation in AR 1.0 cells. The format is cell-based. The note with it: Mus musculus, 100% = accumulation with verapamil 100 μM, 1 hr, 37° C. In outline:
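Daunorubicin accumulation was measured in cells plated 48 h beforehand. These were AR 1.0 cells, an MDR-resistant derivative of mouse EMT6 mammary carcinoma, cultured at 37 °C in 5% CO2 in RPMI 1640 plus 10% foetal calf serum and 2 mM glutamine.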

In data set [2] the test system is AR 1.0 cells. Briefly: Potentiation of doxorubicin toxicity: proliferation assay (sulphorhodamine B). The format is cell-based, mouse. From the text: (a) Selected compounds of formula (I) were examined for their ability to potentiate the toxicity of doxorubicin in AR 1.0 cells.
The subject of data set [3] is AR 1.0 cells. As to the kind of experiment: Potentiation index with doxorubicin titration. The format is cell-based, mouse. The note with it: for Potentiation Index at RMA concentration 10 nM: Table C2, RMA 10 nM; for Potentiation Index at RMA concentration 30 nM: Table C2, RMA 30 nM; for Potentiation Index at RMA concentration 100 nM: Table C2, RMA 100 nM; for Potentiation Index at RMA concentration 300 nM: Table C2, RMA 300 nM; for Potentiation Index at RMA concentration 500 nM: Table C2, RMA 500 nM. Put shortly: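 Doxorubicin IC50 in AR 1.0 cells (MDR subline of EMT6 mouse mammary carcinoma) determined by sulphorhodamine B after 4-day culture across 0.263 nM-17.24 μM, with and without a fixed dose of test compound; their ratio gives the PI.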

Setting [4] is: Mus musculus, 96 h, compound alone, four day proliferation, read-out: Compound Toxicity (IC50).
[5] abbreviates: with fixed doxorubicin 0.34 μm, four days, 5760 min, read-out: Toxicity with Cytotoxic Agent (IC50).

pIC50: −log10 of the molar value.

In the data set on AR 1.0 cells [1], `COc1cc2c(cc1OC)CN(CCc1ccc(NC(=O)c3cc(Cl)ccc3NC(=O)c3cnc4ccccc4c3)cc1)CC2` [compound 9593, Quinoline-3-carboxylic acid (2-{4-[2-(6,7-dimethoxy-3,4-dihydro-1H-isoquinolin-2-yl)-ethyl]-phenylcarbamoyl}-4-chloro-phenyl)-amide] gave a pIC50 of 7.85. For the same molecule, the pIC50 in the data set with AR 1.0 cells [2] (setting [4]) was 5.15. In addition, in the data set with AR 1.0 cells [3], the “Potentiation Index at RMA concentration 10 nM” value is given as 6 and the “Potentiation Index at RMA concentration 30 nM” value stood at 57.

For `COc1cc2c(cc1OC)CN(CCc1ccc(NC(=O)c3ccc(NO)cc3NC(=O)c3cnc4ccccc4n3)cc1)CC2` [compound 9542, Quinoxaline-2-carboxylic acid (2-{4-[2-(6,7-dimethoxy-3,4-dihydro-1H-isoquinolin-2-yl)-ethyl]-phenylcarbamoyl}-5-hydroxyamino-phenyl)-amide], the pIC50 with AR 1.0 cells [1] was 6.89; with AR 1.0 cells [2] (setting [4]) it was 5.72; with AR 1.0 cells [2] (setting [5]), 7.85. For the same molecule, the “Potentiation Index at RMA concentration 100 nM” value with AR 1.0 cells [3] was 128. For the same molecule, the “Potentiation Index at RMA concentration 300 nM” value with AR 1.0 cells [3] is 160.

Turning to `COc1cc2c(cc1OC)CN(CCNC(=O)c1ccc(F)cc1NC(=O)c1ccc(C(C)C)cc1)CC2` [compound 9349, 2-(4-Isopropyl-benzoylamino)-N-[2-(6,7-dimethoxy-3,4-dihydro-1H-isoquinolin-2-yl)-ethyl]-4-fluoro-benzamide], the pIC50 is 6.52 in the data set with AR 1.0 cells [1], 5.26 in the data set on AR 1.0 cells [2] (setting [4]) and 6.85 with AR 1.0 cells [2] (setting [5]). In addition, the “Potentiation Index at RMA concentration 500 nM” value in the data set on AR 1.0 cells [3] is 22.

For `COc1cc2c(cc1OC)CN(CCc1ccc(NC(=O)c3ccccc3NC(=O)c3cc4ccccc4o3)cc1)CC2` [compound 9539, Benzofuran-2-carboxylic acid (2-{4-[2-(6,7-dimethoxy-3,4-dihydro-1H-isoquinolin-2-yl)-ethyl]-phenylcarbamoyl}-phenyl)-amide], the pIC50 is 6.66 with AR 1.0 cells [1], 5.77 with AR 1.0 cells [2] (setting [4]) and 7.96 in the data set with AR 1.0 cells [2] (setting [5]). Further, the “Potentiation Index at RMA concentration 100 nM” value in the data set with AR 1.0 cells [3] stood at 32. In addition, the “Potentiation Index at RMA concentration 300 nM” value with AR 1.0 cells [3] turned out to be 128.

In the data set on AR 1.0 cells [1], `COc1cc2c(cc1OC)CN(CCc1ccc(NC(=O)c3ccccc3NC(=O)c3ccccc3OC)cc1)CC2` [compound 9477, 2-(2-Methoxy-benzoylamino)-N-{4-[2-(617-dimethoxy-3,4-dihydro-1H-isoquinolin-2-yl)-ethyl]-phenyl}-benzamide] showed a pIC50 of 6.39. In addition, in the data set with AR 1.0 cells [2] (setting [4]), the pIC50 was 5.40. Further, in the data set with AR 1.0 cells [3], the “Potentiation Index at RMA concentration 300 nM” value is recorded as 29 and the “Potentiation Index at RMA concentration 500 nM” value is recorded as 63.

Take `COc1cc2c(cc1OC)CN(CCc1ccc(NC(=O)c3cc(C)ccc3NC(=O)c3cnc4ccccc4c3)cc1)CC2` [compound 9584, Quinoline-3-carboxylic acid (2,-{4-[2-(6,7-dimethoxy-3,4-dihydro-1H-isoquinolin-2-yl)-ethyl]-phenylcarbamoyl}-4-methyl-phenyl)-amide]: the pIC50 in the data set with AR 1.0 cells [1] was 6.44; in the data set on AR 1.0 cells [2] (setting [4]), 5.07. Also, the “Potentiation Index at RMA concentration 10 nM” value in the data set with AR 1.0 cells [3] is on record as 2.1. For the same molecule, in the data set on AR 1.0 cells [3], the “Potentiation Index at RMA concentration 30 nM” value is 36.

In the data set with AR 1.0 cells [1], `COc1cc2c(cc1OC)CN(CCNC(=O)c1ccccc1NC(=O)c1ccc(C(=O)c3ccccc3)cc1)CC2` [compound 9427, 2-(4-Benzoyl-benzoylamino)-N-[2-(6,7-dimethoxy-3,4-dihydro-1H-isoquinolin-2-yl)-ethyl]-benzamide] gave a pIC50 of 6.28. Further, in the data set on AR 1.0 cells [2] (setting [4]), the pIC50 is 5.00. In the data set with AR 1.0 cells [3], the “Potentiation Index at RMA concentration 300 nM” value is 14 and the “Potentiation Index at RMA concentration 500 nM” value was found to be 32.

As to `O=C(Nc1ccccc1C(=O)Nc1ccc(CCN2CCc3ccccc3C2)cc1)c1cnc2ccccc2c1` [compound 9577, Quinoline-3-carboxylic acid (2-{4-[2-(3,4-dihydro-1H-isoquinolin-2-yl)-ethyl]-phenylcarbamoyl}-phenyl)-amide], the pIC50 in the data set on AR 1.0 cells [1] was 6.49. Also, in the data set on AR 1.0 cells [2] (setting [4]), the pIC50 is 5.11. Also, in the data set with AR 1.0 cells [3], the “Potentiation Index at RMA concentration 10 nM” value turned out to be 2.2, the “Potentiation Index at RMA concentration 30 nM” value came out at 18 and the “Potentiation Index at RMA concentration 100 nM” value is given as 112.

As to `COc1cc2c(cc1OC)CN(CCNC(=O)c1ccc([N+](=O)[O-])cc1NC(=O)c1ccc(C(C)C)cc1)CC2` [compound 9420, 2-(4-Isopropyl-benzoylamino)-N-[2-(6,7-dimethoxy-3,4-dihydro-1H-isoquinolin-2-yl)-ethyl]-4-nitro-benzamide], the pIC50 in the data set with AR 1.0 cells [1] is 5.72; with AR 1.0 cells [2] (setting [4]), 5.15; with AR 1.0 cells [2] (setting [5]), 6.40. For the same molecule, the “Potentiation Index at RMA concentration 500 nM” value in the data set with AR 1.0 cells [3] is on record as 25.

As to `COc1cc2c(cc1OC)CN(CCc1ccc(NC(=O)c3ccccc3NC(=O)c3cccc(F)c3)cc1)CC2` [compound 9500, 2-(3-Fluoro-benzoylamino)-N-{4-[2-(6,7-dimethoxy-3,4-dihydro-1H-isoquinolin-2-yl)-ethyl]-phenyl}-benzamide], in the data set on AR 1.0 cells [1], the negative logarithm of the IC50 (pIC50) is 6.72. The pIC50 in the data set on AR 1.0 cells [2] (setting [4]) is 5.30. Also, the pIC50 with AR 1.0 cells [2] (setting [5]) was 8.05. Further, in the data set with AR 1.0 cells [3], the “Potentiation Index at RMA concentration 30 nM” value came to 5.5, the “Potentiation Index at RMA concentration 100 nM” value is 97 and the “Potentiation Index at RMA concentration 300 nM” value is 300.

For the molecule `COc1cc2c(cc1OC)CN(CCCc1ccc(NC(=O)c3ccccc3NC(=O)c3cnc4ccccc4n3)cc1)CC2` [compound 9567, Quinoxaline-2-carboxyXic acid (2-{4-[3-(6,7-dimethoxy-3,4-dihydro-1H-isoquinolin-2-yl)-propyl]-phenylcarbamoyl}-phenyl)-amide], the pIC50 with AR 1.0 cells [1] was 6.80. Further, in the data set with AR 1.0 cells [2] (setting [4]), the negative logarithm of the IC50 (pIC50) was 5.77. Further, the pIC50 with AR 1.0 cells [2] (setting [5]) was 7.55. In addition, in the data set on AR 1.0 cells [3], the “Potentiation Index at RMA concentration 10 nM” value is recorded as 1.7, the “Potentiation Index at RMA concentration 30 nM” value turned out to be 8 and the “Potentiation Index at RMA concentration 100 nM” value worked out at 112.

As for `COc1cc2c(cc1OC)CN(CCc1ccc(NC(=O)c3cc(O)ccc3NC(=O)c3cnc4ccccc4n3)cc1)CC2` [compound 9554, Quinoxaline-2-carboxylic acid (2-{4-[2-(6,7-dimethoxy-3,4-dihydro-1H-isoquinolin-2-yl)-ethyl]-phenylcarbamoyl}-4-hydroxy-phenyl)-amide], the figures for the pIC50 with AR 1.0 cells [1], in the data set with AR 1.0 cells [2] (setting [4]) and in the data set on AR 1.0 cells [2] (setting [5]) were 6.00, 5.52 and 7.30, respectively. For the same molecule, the “Potentiation Index at RMA concentration 100 nM” value in the data set on AR 1.0 cells [3] is 90.

Consider `COc1cc2c(cc1OC)CN(CCc1ccc(NC(=O)c3ccccc3NC(=O)c3cccc(Cl)c3)cc1)CC2` [compound 9495, 2-(3-chloro-benzoylamino)-N-{4-[2-(617-dimethoxy-3,4-dihydro-1H-isoquinolin-2-yl)-ethyl]-phenyl}-benzamide], for which, in the data set with AR 1.0 cells [1], the pIC50 was 6.30. Also, the pIC50 in the data set on AR 1.0 cells [2] (setting [4]) is 5.40. Further, in the data set on AR 1.0 cells [3], the “Potentiation Index at RMA concentration 30 nM” value is recorded as 1.3, the “Potentiation Index at RMA concentration 100 nM” value came to 15, the “Potentiation Index at RMA concentration 300 nM” value is given as 261 and the “Potentiation Index at RMA concentration 500 nM” value turned out to be 567.
